In patent publication US8778874B2, “Glycopeptide antibiotic monomer derivatives” (priority 2004, dated 2014):

System: vancomycin-resistant enterococcus (VRE VanA)
Experiment: In vitro assay of antimicrobial activity: MIC by the microdilution method using cation adjusted Mueller-Hinton broth
Type: cell-based
Description: In Vitro Assay of Antimicrobial Activity
For several compounds of the invention, minimal inhibitory concentration (MIC) was determined by the microdilution method using cation adjusted Mueller-Hinton broth well known in the art.

[1] = E. faecalis SR7914 (VRE: Van A)

SMILES | minimal inhibitory concentration (MIC) [1] | minimal inhibitory concentration (MIC) (E. faecium SR7917 (VRE: Van A))
CNC(CC(C)C)C(=O)NC1C(=O)N[C@@H](CC(N)=O)C(=O)N[C@H]2C(=O)N[C@H]3C(=O)N[C@H](C(=O)N[C@@H](C(=O)O)c4cc(O)cc(O)c4-c4cc3ccc4O)C(O)c3ccc(c(Cl)c3)Oc3cc2cc(c3OC2OC(CO)[C@H](O)C(O)[C@H]2O[C@@H]2CC(C)(NCc3cccc(NC(=O)c4ccc(C)c(OCc5ccccc5)c4[N+](=O)[O-])c3)[C@@H](O)C(C)O2)Oc2ccc(cc2Cl)[C@H]1O (stereo partly drawn) [Compound 10] | 2 | 2
CNC(CC(C)C)C(=O)NC1C(=O)N[C@@H](CC(N)=O)C(=O)N[C@H]2C(=O)N[C@H]3C(=O)N[C@H](C(=O)N[C@@H](C(=O)O)c4cc(O)cc(O)c4-c4cc3ccc4O)C(O)c3ccc(c(Cl)c3)Oc3cc2cc(c3OC2OC(CO)[C@H](O)C(O)[C@H]2O[C@@H]2CC(C)(NCc3ccc(OCCCNC(=O)c4ccc(C)c(OCc5ccccc5)c4[N+](=O)[O-])cc3)[C@@H](O)C(C)O2)Oc2ccc(cc2Cl)[C@H]1O (stereo partly drawn) [Compound 16] | 4 | 4
CN[C@H](CC(C)C)C(=O)N[C@H]1C(=O)N[C@@H](CC(N)=O)C(=O)N[C@H]2C(=O)N[C@H]3C(=O)N[C@H](C(=O)N[C@H](C(=O)O)c4cc(O)cc(O)c4-c4cc3ccc4O)[C@H](O)c3ccc(c(Cl)c3)Oc3cc2cc(c3O[C@@H]2O[C@H](CO)[C@@H](O)[C@H](O)[C@H]2O[C@H]2C[C@](C)(N)[C@H](O)[C@H](C)O2)Oc2ccc(cc2Cl)[C@H]1O [VCM, vancomycin, reference compound] | >64 | >64
